Target: T1, human PF4 (Homo sapiens, UniProt P02776)
T1 construct: PF4 is a 70 amino acid, lysine-rich 7.8 kDa platelet-specific protein; made in house; host or cells: Escherichia coli BL21DE3 pLysS (pT7-7) and/or Drosophila S2 cells
T1 sequence (P02776 32-101): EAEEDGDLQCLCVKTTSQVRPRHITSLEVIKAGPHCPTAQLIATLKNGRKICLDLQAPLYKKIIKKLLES
Experiment: Inhibition of PF4 tetramer formation (BS3 cross-linking, SDS-PAGE)
Format: biochemical
Conditions: for inhibition at 1 µM: 1 μM inhibitor; for inhibition at 1 µM / inhibition at 3 µM / inhibition at 5 µM / inhibition at 10 µM: read-out: % inhibition of PF4 tetramer formation at single concentration of inhibitor; for inhibition at 3 µM: 3 μM inhibitor (column A); for inhibition at 5 µM: 5 μM inhibitor; for inhibition at 10 µM: 10 μM inhibitor (column A); for IC50: read-out: IC50 of PF4 tetramer formation inhibition
Protocol: Compounds of Examples 1-38, 65-301, 303, 305, 307, 309, 311, 313, 314, 316, and 318-404 were tested using SDS PAGE analysis of BS3 crosslinked PF4 for their ability to prevent PF4 tetramer formation. […] See, Suvarna et al., Throm. Res, 122:211-220 (2008), which is hereby incorporated by reference, at least for a detailed description of this technique.
cDNA encoding human PF4 was cloned into the plasmid μMT/BiPN5-His A (Invitrogen Corp., Carlsbad CA) for expression in the Drosophila Expression System (Invitrogen, Carlsbad, CA). Cloning was performed using Bg1 II and Age I cloning sites. A hexanucleotide encoding Bg1 II site was then eliminated by site-directed mutagenesis so that the expressed protein contained full-length wild type (wt) PF4 or PF4^K50E with an identical sequence as their counterparts expressed in E. coli. See, method described in Sachais et al (Sachais, B. S. et al. (2012). Blood 119(25): 5955-5961). PF4 expression was induced by adding copper sulfate (0.5 mM). The induced S2 cells were incubated in serumfree Insect-Xpress™ media (Lonza, Walkersville, MD) for 3-5 days; supernatants were collected, sodium azide (0.02% final concentration) and EDTA (2.5 mM final concentration) were added, and the media were filtered through an Express® PLUS 0.22 μm filter (Millipore Corp., Billerica, MA).
Wild-type (WT) human PF4 in the pT7-7 vector (Novagen, Madison, WI) was expressed in the Escherichia coli strain BL21DE30 pLysS (Stratagene, La Jolla, CA), and purified and characterized as described by Rauova et al. (Rauova, L. et al. (2006). Blood 107(6): 2346-2353) and Park et al., (Blood, 75:1290-1295 (1990)), which are hereby incorporated by reference. Briefly, recombinant protein was isolated from the supernatant of the bacterial lysate by affinity chromatography using a HiTrap high-performance (HP) affinity column. WT PF4 was purified from the media on a heparin HiTrap® column on an ÄTKAPrime™ system (GE Healthcare) at 4° C. in Tris (10 mM), EDTA (1 mM), and pH 8 buffer. Media was loaded in buffer containing NaCl (0.5 M) and PF4 was eluted at 1.8 M NaCl using a linear gradient. Fractions containing purified PF4 as detected by silver staining of 12% NuPAGE Bis-Tris gels (Invitrogen) were pooled, concentrated and buffer exchanged into 50 mM HEPES, 0.5 M NaCl, pH—7.2 using an Amicon® Ultra centrifugal filter (3K NMWL, Millipore Corp). Protein was quantified using a BCA assay.
Compounds of Examples 1-38, 65-196, and 209-228 were then tested for their ability to inhibit PF4 tetramer formation using a cross-linking assay as described in Rauova cited above. Specifically, hPF4 (10 μg/ml) in phosphate-buffered saline (PBS) was incubated at 37° C. for 15 min in the absence of the antagonistic compounds (control sample) and presence of compounds. Cross-linking and SDS-PAGE analysis were then performed as described in “Analysis of PF4 multimerization” of Rauova. The relative amounts of PF4 in each of the monomer, dimer, trimer and tetramer form were calculated by analyzing the samples on a 12% SDS-polyacrylamide gel under reducing conditions. Bands were quantified using the Kodak ID Image Analysis system (Kodak, Rochester, NY). The SigmaMarker™ reagent served as the molecular weight standard. Data was compiled and bar graphed as % PF4 for the tetramer, trimer, dimer, and monomer as a function of concentration for the test and control samples.
This experiment was performed in a manner similar to experiment 1, but PF4 (10 μg/ml) in PBS was independently incubated with compounds of Examples 1-38, 65-196, and 209-228 for 60 min at room temperature, followed by the addition of cross-linking reagent bis(sulfosuccinimidyl)suberate (0.2 mM) for 30 min at room temperature. The reaction was stopped by adding NuPAGE® lithium dodecyl sulfate (LDS) sample buffer, and denatured by heating to 70° C. for 10 min according to the manufacturer's instructions. […]

Molecule `O=C1c2ccc(Oc3ccc4c(c3)C(=O)C(C(=O)[C@H]3CCCN3)C4=O)cc2C(=O)C1C(=O)[C@@H]1CCNC1` (stereo partly drawn) [Example 356, 5-({1,3-dioxo-2-[(3R)-pyrrolidine-3-carbonyl]-2,3-dihydro-1H-inden-5-yl}oxy)-2-[(2R)-pyrrolidine-2-carbonyl]-2,3-dihydro-1H-indene-1,3-dione] has an inhibition at 1 µM of 18% and an inhibition at 3 µM of 55%.
`CC(C)(C)OC(=O)N1CC[C@@H](C(=O)C2C(=O)c3ccc(S(=O)(=O)c4ccc5c(c4)C(=O)C(C(=O)[C@@H]4CCN(C(=O)OC(C)(C)C)C4)C5=O)cc3C2=O)C1` (stereo partly drawn) [Example 376, tert-butyl (3R)-3-[5-({2-[(3R)-1-[(tert-butoxy)carbonyl]pyrrolidine-3-carbonyl]-1,3-dioxo-2,3-dihydro-1H-inden-5-yl}sulfonyl)-1,3-dioxo-2,3-dihydro-1H-indene-2-carbonyl]pyrrolidine-1-carboxylate] gave an inhibition at 1 µM of 22% and an inhibition at 3 µM of 62%.
Work on `O=C(c1ccc2c(c1)C(=O)C(C(=O)Cn1cnnn1)C2=O)c1ccc2c(c1)C(=O)C(C(=O)Cn1cnnn1)C2=O` (centres unmarked) [Example 168, 5-{1,3-dioxo-2-[2-(1H-1,2,3,4-tetrazol-1-yl)acetyl]-2,3-dihydro-1H-indene-5-carbonyl}-2-[2-(1H-1,2,3,4-tetrazol-1-yl)acetyl]-2,3-dihydro-1H-indene-1,3-dione] yielded an inhibition at 5 µM of 68%, an inhibition at 10 µM of 89% and an IC50 of 4.3 µM.
Work on `CCCCC(=O)C1C(=O)c2ccc(S(=O)(=O)c3ccc4c(c3)C(=O)C(C(=O)CCCC)C4=O)cc2C1=O` (centres unmarked) [Example 154, 5-[(1,3-dioxo-2-pentanoyl-2,3-dihydro-1H-inden-5-yl)sulfonyl]-2-pentanoyl-2,3-dihydro-1H-indene-1,3-dione] yielded an inhibition at 5 µM of 100%, an inhibition at 10 µM of 100% and an IC50 of 1.2 µM.
Molecule `CC(C)(C)OC(=O)NCC(=O)C1C(=O)c2ccc(C(c3ccc4c(c3)C(=O)C(C(=O)CNC(=O)OC(C)(C)C)C4=O)(C(F)(F)F)C(F)(F)F)cc2C1=O` (centres unmarked) [Example 228, tert-butyl N-[2-(5-{2-[2-(2-{[(tert-butoxy)carbonyl]amino}acetyl)-1,3-dioxo-2,3-dihydro-1H-inden-5-yl]-1,1,1,3,3,3-hexafluoropropan-2-yl}-1,3-dioxo-2,3-dihydro-1H-inden-2-yl)-2-oxoethyl]carbamate] has an IC50 of 2.8 µM.
`CC(C)(C)OC(=O)N1C[C@@H]2[C@H](C1)[C@H]2C(=O)C1C(=O)c2ccc(C(=O)c3ccc4c(c3)C(=O)C(C(=O)[C@H]3[C@@H]5CN(C(=O)OC(C)(C)C)C[C@@H]53)C4=O)cc2C1=O` (some centres unmarked) [Example 121] gave an inhibition at 5 µM of 82%, an inhibition at 10 µM of 80% and an IC50 of 3.5 µM.
`COC(=O)N1CCC[C@H]1C(=O)C1C(=O)c2ccc(C(=O)c3ccc4c(c3)C(=O)C(C(=O)[C@@H]3CCCN3C(=O)OC)C4=O)cc2C1=O` (stereo partly drawn) [Example 114, methyl (2S)-2-(5-{2-[(2S)-1-(methoxycarbonyl)pyrrolidine-2-carbonyl]-1,3-dioxo-2,3-dihydro-1H-indene-5-carbonyl}-1,3-dioxo-2,3-dihydro-1H-indene-2-carbonyl)pyrrolidine-1-carboxylate] gave an inhibition at 5 µM of 76%, an inhibition at 10 µM of 91% and an IC50 of 2.5 µM.
In the case of `O=C(CN1CCCC1=O)C1C(=O)c2ccc(C#Cc3ccc4c(c3)C(=O)C(C(=O)CN3CCCC3=O)C4=O)cc2C1=O` (centres unmarked) [Example 293, 5-(2-{1,3-dioxo-2-[2-(2-oxopyrrolidin-1-yl)acetyl]-2,3-dihydro-1H-inden-5-yl}ethynyl)-2-[2-(2-oxopyrrolidin-1-yl)acetyl]-2,3-dihydro-1H-indene-1,3-dione], the inhibition at 1 µM is reported as 28% and the inhibition at 3 µM is reported as 43%.
Work on `CC(C)(C)OC(=O)N1CSC[C@H]1C(=O)C1C(=O)c2ccc(C(=O)c3ccc4c(c3)C(=O)C(C(=O)[C@@H]3CSCN3C(=O)OC(C)(C)C)C4=O)cc2C1=O` (stereo partly drawn) [Example 129, tert-butyl (4R)-4-(5-{2-[(4R)-3-[(tert-butoxy)carbonyl]-1,3-thiazolidine-4-carbonyl]-1,3-dioxo-2,3-dihydro-1H-indene-5-carbonyl}-1,3-dioxo-2,3-dihydro-1H-indene-2-carbonyl)-1,3-thiazolidine-3-carboxylate] yielded an IC50 of roughly 2 µM.
`CC(C)C(=O)NCC(=O)C1C(=O)c2ccc(C(=O)c3ccc4c(c3)C(=O)C(C(=O)CNC(=O)C(C)C)C4=O)cc2C1=O` (centres unmarked) [Example 187, 2-methyl-N-[2-(5-{2-[2-(2-methylpropanamido)acetyl]-1,3-dioxo-2,3-dihydro-1H-indene-5-carbonyl}-1,3-dioxo-2,3-dihydro-1H-inden-2-yl)-2-oxoethyl]propanamide] gave an inhibition at 5 µM of 88%, an inhibition at 10 µM of 90% and an IC50 of 2.6 µM.
With `CC(C)(C)OC(=O)N1CC[C@H]1C(=O)C1C(=O)c2ccc(Oc3ccc4c(c3)C(=O)C(C(=O)[C@@H]3CCN3C(=O)OC(C)(C)C)C4=O)cc2C1=O` (stereo partly drawn) [Example 273, tert-butyl (2S)-2-[5-({2-[(2S)-1-[(tert-butoxy)carbonyl]azetidine-2-carbonyl]-1,3-dioxo-2,3-dihydro-1H-inden-5-yl}oxy)-1,3-dioxo-2,3-dihydro-1H-indene-2-carbonyl]azetidine-1-carboxylate] the inhibition at 1 µM was 20% and the inhibition at 3 µM was 20%.
Work on `O=C(NC1CC1)C1C(=O)c2ccc(Oc3ccc4c(c3)C(=O)C(C(=O)NC3CC3)C4=O)cc2C1=O` (centres unmarked) [Example 106, N-cyclopropyl-5-{[2-(cyclopropylcarbamoyl)-1,3-dioxo-2,3-dihydro-1H-inden-5-yl]oxy}-1,3-dioxo-2,3-dihydro-1H-indene-2-carboxamide] yielded an IC50 of roughly 4 µM.
Work on `O=C(Nc1ccc(I)cc1)C1C(=O)c2ccc(S(=O)(=O)c3ccc4c(c3)C(=O)C(C(=O)Nc3ccc(I)cc3)C4=O)cc2C1=O` (centres unmarked) [Example 95, N-(4-iodophenyl)-5-({2-[(4-iodophenyl)carbamoyl]-1,3-dioxo-2,3-dihydro-1H-inden-5-yl}sulfonyl)-1,3-dioxo-2,3-dihydro-1H-indene-2-carboxamide] yielded an inhibition at 5 µM of 33% and an inhibition at 10 µM of 69%.
In the case of `O=C(c1ccc2c(c1)C(=O)C(C(=O)NCc1ccccc1)C2=O)c1ccc2c(c1)C(=O)C(C(=O)NCc1ccccc1)C2=O` (centres unmarked) [Example 25, 5,5′-carbonylbis(1,3-dioxo-indan-2-carboxylic acid ((phenyl)methyl)-amide)], the inhibition at 5 µM is reported as 63%, the inhibition at 10 µM is reported as 70% and the IC50 is reported as 6.24 µM.
`O=C(c1ccc2c(c1)C(=O)C(C(=O)Nc1cc(Cl)nc(Cl)c1)C2=O)c1ccc2c(c1)C(=O)C(C(=O)Nc1cc(Cl)nc(Cl)c1)C2=O` (centres unmarked) [Example 17, 5,5′-carbonylbis(1,3-dioxo-indan-2-carboxylic acid (2,6-dichloro-pyridin-4-yl)-amide)] showed an IC50 of 1.08 µM.
